Values after ≈ are worked out from the molar mass of the structure shown. Like-named read-outs stand apart in the source and are kept apart here.
Experiments:
Type in all cases: physicochemical
[1] = Suspension formulation stability in 0.5% MC pH 3 buffer
Method: About 9 mg of free base Form II (Lot#1) was added into 0.3 mL of 0.5% MC pH 3 buffer, and stirred at RT for 30 min to make a suspension with 30 mg/mL drug loading (Day 0 sample). The suspension samples in vials, prepared at the same time, were kept at RT for 3 or 7 days. At each time point, the whole suspension in a vial was dissolved in 8.7 mL water/ACN (1:1, v/v) and then was analyzed by HPLC. Sedimentation of suspension was checked by visual observation, and the solids in another vial were tested by PLM and XRPD.

[2] = Solid-state stability
Method: Solid-state stability of free base Form II (Lot#1) was conducted at 60° C. (capped) and 40° C./75% RH (open) for 7 days. The stability sample was dissolved in diluent to prepare solution at ˜0.5 mg/mL for HPLC purity analysis. Solid samples were analyzed by XRPD to check the crystalline form. […] (capped) and 40° C./75% RH (open) after 7 days.

[3] = Solubility in bio-relevant media, water and pH buffers (HPLC of filtrate, XRPD of filter cake); conditions: for solubility at 0.5 h / solubility at 2 h / solubility at 24 h / solubility / solubility at 4 h / solubility at 8 h: thermodynamic from solid; for solubility at 0.5 h: read-out: Solubility (mg/mL) 0.5 h; for solubility at 2 h: read-out: Solubility (mg/mL) 2 h; for solubility at 24 h: read-out: Solubility (mg/mL) 24 h; for Solubility (mg/mL) 0.5 h / Solubility (mg/mL) 2 h / Solubility (mg/mL) 4 h / Solubility (mg/mL) 8 h: listed as Freebase Form II (Lot #2); for solubility at 4 h: read-out: Solubility (mg/mL) 4 h; for solubility at 8 h: read-out: Solubility (mg/mL) 8 h
Method: About 15 mg of freebase Form II was weighed into sample vials, and then 3 mL of each media was added to make suspensions, respectively. […] Duplicated samples were prepared for each media.
HPLC analysis was performed with an Agilent HPLC 1260 series instrument.

[4] = Solubility in 0.5% MC and 0.5% MC pH 3 citrate buffer; conditions: for solubility: thermodynamic from solid
Method: Solubility of freebase Form II was first measured in 0.5% MC (400 cPs) and 0.5% MC (400 cPs) pH 3 citrate buffer. About 5 mg of Form II (Lot#1) was stirred in 1 mL of media at RT for ˜2 hours. The suspension was filtered, with filtrates analyzed by HPLC and remaining solids tested by XRPD. […] Therefore, 0.5% MC pH 3 buffer was selected for suspension formulation stability study.

[5] = DVS moisture sorption (hygroscopicity)
Method: Moisture sorption/desorption data were collected on a DVS instrument. About 75 mg of a sample was placed into a tared sample chamber and automatically weighed. The anhydrate was analyzed with the setting parameters in the table below.

[6] = 0.5% MC pH 3 citrate buffer, up to 7 days
[7] = 0.5% MC pH 3 buffer (100 mM citrate), RT, ~2 hours

crystalline form in suspension [1, 6]: remained unchanged
purity change in suspension [1, 6]: no purity decrease was observed
Purity (area %, 220 nm) Initial ([1]; initial, before suspension): 99.25 area %
sedimentation of suspension (visual observation) ([1]; kept at RT for 3 or 7 days, homogeneous again after swirling 1 min): Sedimentation was observed
Purity (area %, 220 nm) Day 0 ([1]; suspension in 0.5% MC pH 3 buffer (100 mM citrate), 30 mg/mL, RT, Day 0): 99.30 area %
Purity (area %, 220 nm) Day 3 ([1]; suspension in 0.5% MC pH 3 buffer (100 mM citrate), 30 mg/mL, RT, Day 3): 99.28 area %
Purity (area %, 220 nm) Day 7 ([1]; suspension in 0.5% MC pH 3 buffer (100 mM citrate), 30 mg/mL, RT, Day 7): 99.26 area %
Purity (area %) @7 D 40° C./75% RH ([2]; 40° C./75% RH (open), 7 days): 99.26 area %
XRPD @7 D 40° C./75% RH ([2]; 40° C./75% RH (open), 7 days): Unchanged
solid-state stability ([2]; 60° C. (capped) and 40° C./75% RH (open), after 7 days): physically and chemically stable
Purity (area %) @7 D 60° C. ([2]; 60° C. (capped), 7 days): 99.25 area %
XRPD @7 D 60° C. ([2]; 60° C. (capped), 7 days): Unchanged
Purity (area %) Initial ([2]; initial): 99.26 area %
solubility at 0.5 h ([3]; FaSSIF, 37 °C, pH 6.45, fassif, FaSSIF, initial pH 6.45, 37° C., 800 rpm, 0.5 h): 0.016 mg/mL (≈ 38.2 µM)
solubility at 2 h ([3]; FaSSIF, 37 °C, pH 6.45, fassif, FaSSIF, initial pH 6.45, 37° C., 800 rpm, 2 h): 0.025 mg/mL (≈ 59.7 µM)
solubility at 24 h ([3]; FaSSIF, 37 °C, pH 6.45, fassif, FaSSIF, initial pH 6.45, 37° C., 800 rpm): 0.028 mg/mL (≈ 66.9 µM)
solubility ([3]; FaSSIF, 37 °C): ~20 µg/mL (≈ 47.8 µM)
Solubility (mg/mL) 0.5 h ([3]; FaSSIF, initial pH 6.50, 0.5 h): 0.015 mg/mL (≈ 35.8 µM)
Solubility (mg/mL) 2 h ([3]; FaSSIF, initial pH 6.50, 2 h): 0.015 mg/mL (≈ 35.8 µM)
Solubility (mg/mL) 4 h ([3]; FaSSIF, initial pH 6.50, 4 h): 0.017 mg/mL (≈ 40.6 µM)
Solubility (mg/mL) 8 h ([3]; FaSSIF, initial pH 6.50, 8 h): 0.016 mg/mL (≈ 38.2 µM)
solubility at 0.5 h ([3]; FaSSIF, pH 6.5, fassif, FaSSIF, initial pH 6.50, 0.5 h): 0.016 mg/mL (≈ 38.2 µM)
solubility at 2 h ([3]; FaSSIF, pH 6.5, fassif, FaSSIF, initial pH 6.50, 2 h): 0.017 mg/mL (≈ 40.6 µM)
solubility at 4 h ([3]; FaSSIF, pH 6.5, fassif, FaSSIF, initial pH 6.50, 4 h): 0.021 mg/mL (≈ 50.2 µM)
solubility at 8 h ([3]; FaSSIF, pH 6.5, fassif, FaSSIF, initial pH 6.50, 8 h): 0.023 mg/mL (≈ 55 µM)
solubility at 0.5 h ([3]; FeSSIF, 37 °C, pH 4.89, fessif, FeSSIF, initial pH 4.89, 37° C., 800 rpm, 0.5 h): 0.087 mg/mL (≈ 208 µM)
solubility at 2 h ([3]; FeSSIF, 37 °C, pH 4.89, fessif, FeSSIF, initial pH 4.89, 37° C., 800 rpm, 2 h): 0.101 mg/mL (≈ 241 µM)
solubility at 24 h ([3]; FeSSIF, 37 °C, pH 4.89, fessif, FeSSIF, initial pH 4.89, 37° C., 800 rpm): 0.12 mg/mL (≈ 287 µM)
solubility ([3]; FeSSIF, 37 °C, pH 4.98, fessif): ~100 µg/mL (≈ 239 µM)
solubility at 8 h ([3]; FeSSIF, 37 °C, pH 4.98, fessif, FeSSIF, initial pH 4.98, 8 h): 0.105 mg/mL (≈ 251 µM)
Solubility (mg/mL) 0.5 h ([3]; FeSSIF, initial pH 4.98, 0.5 h): 0.087 mg/mL (≈ 208 µM)
Solubility (mg/mL) 2 h ([3]; FeSSIF, initial pH 4.98, 2 h): 0.089 mg/mL (≈ 213 µM)
Solubility (mg/mL) 4 h ([3]; FeSSIF, initial pH 4.98, 4 h): 0.096 mg/mL (≈ 229 µM)
Solubility (mg/mL) 8 h ([3]; FeSSIF, initial pH 4.98, 8 h): 0.101 mg/mL (≈ 241 µM)
solubility at 0.5 h ([3]; FeSSIF, pH 4.98, fessif, FeSSIF, initial pH 4.98, 0.5 h): 0.085 mg/mL (≈ 203 µM)
solubility at 2 h ([3]; FeSSIF, pH 4.98, fessif, FeSSIF, initial pH 4.98, 2 h): 0.09 mg/mL (≈ 215 µM)
solubility at 4 h ([3]; FeSSIF, pH 4.98, fessif, FeSSIF, initial pH 4.98, 4 h): 0.097 mg/mL (≈ 232 µM)
solubility at 0.5 h ([3]; SGF, 37 °C, pH 1.27, simulated gastric fluid, SGF, initial pH 1.27, 37° C., 800 rpm, 0.5 h): > 5 mg/mL
solubility at 2 h ([3]; SGF, 37 °C, pH 1.27, simulated gastric fluid, SGF, initial pH 1.27, 37° C., 800 rpm, 2 h): > 5 mg/mL
solubility at 24 h ([3]; SGF, 37 °C, pH 1.27, simulated gastric fluid, SGF, initial pH 1.27, 37° C., 800 rpm): > 5 mg/mL
solubility ([3]; SGF, 37 °C, simulated gastric fluid): > 5000 µg/mL
crystalline form during solubility test (XRPD of filter cake) ([3]; all media, up to 24 hours): remained unchanged
solubility ([3]; pH 5.0 buffer, 37 °C, pH 5, aqueous buffer): ~50 µg/mL (≈ 119 µM)
solubility at 0.5 h ([3]; pH 5.0 buffer, 37 °C, pH 5, aqueous buffer, pH 5.0 buffer, initial pH 4.94, 37° C., 800 rpm, 0.5 h): 0.045 mg/mL (≈ 108 µM)
solubility at 2 h ([3]; pH 5.0 buffer, 37 °C, pH 5, aqueous buffer, pH 5.0 buffer, initial pH 4.94, 37° C., 800 rpm, 2 h): 0.05 mg/mL (≈ 119 µM)
solubility at 24 h ([3]; pH 5.0 buffer, 37 °C, pH 5, aqueous buffer, pH 5.0 buffer, initial pH 4.94, 37° C., 800 rpm): 0.061 mg/mL (≈ 146 µM)
solubility ([3]; pH 6.5 buffer, 37 °C, pH 6.5, aqueous buffer): ~10 µg/mL (≈ 23.9 µM)
solubility at 0.5 h ([3]; pH 6.5 buffer, 37 °C, pH 6.5, aqueous buffer, pH 6.5 buffer, initial pH 6.43, 37° C., 800 rpm, 0.5 h): 0.007 mg/mL (≈ 16.7 µM)
solubility at 2 h ([3]; pH 6.5 buffer, 37 °C, pH 6.5, aqueous buffer, pH 6.5 buffer, initial pH 6.43, 37° C., 800 rpm, 2 h): 0.008 mg/mL (≈ 19.1 µM)
solubility at 24 h ([3]; pH 6.5 buffer, 37 °C, pH 6.5, aqueous buffer, pH 6.5 buffer, initial pH 6.43, 37° C., 800 rpm): 0.01 mg/mL (≈ 23.9 µM)
solubility at 0.5 h ([3]; water, 37 °C, pH 4.18, water, Water, initial pH 4.18, 37° C., 800 rpm, 0.5 h): 0.007 mg/mL (≈ 16.7 µM)
solubility at 2 h ([3]; water, 37 °C, pH 4.18, water, Water, initial pH 4.18, 37° C., 800 rpm, 2 h): 0.008 mg/mL (≈ 19.1 µM)
solubility at 24 h ([3]; water, 37 °C, pH 4.18, water, Water, initial pH 4.18, 37° C., 800 rpm): 0.01 mg/mL (≈ 23.9 µM)
solubility ([3]; water, 37 °C): ~10 µg/mL (≈ 23.9 µM)
solubility ([4]; 0.5% MC (400 cPs) pH 3 citrate buffer, pH 3, aqueous with cosolvent or surfactant or cyclodextrin, 0.5% MC pH 3 buffer (100 mM citrate), initial pH 3.0, RT, ~2 hours): 4500 µg/mL (≈ 10800 µM)
solubility ([4]; 0.5% MC (400 cPs), aqueous with cosolvent or surfactant or cyclodextrin, 0.5% MC, RT, ~2 hours): < 10 µg/mL
solubility ([4]; 0.5% MC (400 cPs), aqueous with cosolvent or surfactant or cyclodextrin, RT, ~2 hours): 6 µg/mL (≈ 14.3 µM)
Filtrate Purity 254 nm [4, 7]: 99.25%
XRPD of remaining solids [4, 7]: Unchanged
form change (XRPD) ([4]; both media: 0.5% MC and 0.5% MC pH 3 citrate buffer): No form change was observed
crystalline form after DVS test [5]: remained unchanged
hygroscopicity (DVS) [5]: non-hygroscopic
water uptake (DVS) ([5]; at 80% RH, 25° C.): 0.19%
Structure (SMILES): CNC(=O)c1ccc(N2CCN(Cc3cnc4cc(C5CC5)c(=O)[nH]c4c3)CC2)cn1 [Freebase Form II, 5-(4-((7-cyclopropyl-6-oxo-5,6-dihydro-1,5-naphthyridin-3-yl)methyl)piperazin-1-yl)-N-methylpicolinamide]
